# Data reported in patent EP0292365A2, “4-Amino-5,8-quinazolindione derivatives, process for their preparation and pharmaceutical compositions containing them” (CENTRE NATIONAL DE LA RECHERCHE SCIENTIFIQUE, priority 1987, dated 1988).
# Where two headings read alike, the source gives them in different places.
# Legend:
# Leucémie L1210 = assay type: in vivo, souris DBA/2; details: for survivants 30 jours / Δ P J1-J5 / T/C / Doses actives (T/C ≥ 125 %): L1210, greffe ip(10^5cel.); for T/C: survivants inclus
# Excerpt: Afin de tester l'activité antitumorale des composés décrits plus haut, on a utilisé les leucémies murines P388 et L1210, ainsi que le mélanome murin B16. La leucémie P388 est considère comme très sensible et permet une première sélection. D'autre part, une substance ayant une grande activité sur la leucémie L1210 a une grande chance d'être active en clinique humaine (J.M. Venditti; Relevance of transplantable animal tumor systems to the Selection of new agents for clinical trial in pharmacological basis of cancer chemotherapy. The University of Texas ed. Williams and Wilkins, publ. 1975, Baltimore USA).
# La leucémie L1210 de la souris est en effet couramment utilisée pour l'évaluation de tous les composés antitumoraux actuellement mis en oeuvre en thérapeutique humaine, ainsi qu'il est décrit, par exemple par C.C. Zubrod dans Proc. Nat. Acad. Sci. USA 69, 1972, p. 1042-1047. Le système tumoral ainsi constitué expérimentalement permet une évaluation quantitative très précise de l'activité du composé testé, et, par conséquent aussi, une comparaison objective entre les activités respectives de différents composés, par exemple selon les méthodes décrites par R. E. Skipper, F. M. Schabel, Jr. et W. S. Wilcox dans Cancer Chemother. Rep., 35, 1964, p. 1-111 et 45, 1965, p.5-28.
# Cette étude a été réalisée sur 1, 2 ou 3 tumeurs murines expérimentales selon le schéma suivant :
# Les produits en solution dans l'eau ou en suspension dans du Klucel sont administrés par voie intrapéritonéale 24 heures après la greffe des cellules tumorales (10 animaux par série), soit en injection unique (J1), soit pendant 9 jours consécutifs (Ji-9). Les morts sont relevés chaque jour à la même heure. La comparaison du temps médian de survie des souris témoins (C) et des souris traitées (T) permet d'apprécier l'activité antitumorale du produit. On adopte comme critère d'activité minimale la valeur de T/C supérieure ou égale à 125 % conformément aux critères établis par GERAN et par l'O.M.S. (Réf. GERAN R.I., GREENBERG N.H., MACDONALD M.M., SCHUMACHER A.M. and ABBOTT B.J. Protocols for screening chemical agents and natural products against animal tumors and other biological systems. Cancer Chemother. Rep. Part 3, 3, 1-103 (1972)).
# Lorsque le composé est actif sur plusieurs tumeurs, son administration par d'autres voies que la voie intrapéritonéale (i.p.) est envisagée : orale (p.o) et intraveineuse (i.v). Les résultats des essais effectués à l'aide du composé 63 sont rassemblés dans le tableau IV ci-après.
# Dans les tableaux IV et IV Bis, P représentent la variation de poids entre J1 et J5 des animaux traités; lorsque P est supérieure à environ 4 g, cela signifie que la dose à laquelle le composé a été testé est toxique.
# réticulosarcome M 5076 = test: First trials on reticulosarcoma M 5076; assay type: in vivo; details: souris; doses infratoxique; premiers essais
# cellules de lignée MCF-7 = test: Effect on in vitro cell growth, MCF-7 line (Feulgen staining, automated scanning microscopy); assay type: cell-based, humaine; details: for nombre de cellules observées par champ de microscope: MCF-7
# Procedure: Les cellules tumorales en croissance exponentielle sont ensemencées (10.000 cellules/ml) dans des boîtes à Petri contenant au fond de la boîte un couvre-objet (18 x 18 mm) et 3 ml de MEM (MEM = milieu essentiel minimum) + 5 % FCS (FCS = serum de veau fetal) (v/v). Après 24 heures d'incubation, quand les cellules sont bien attachées au fond de la boîte, le milieu est remplacé par MEM expérimental contenant 5 % FCS (v/v) et enrichi, par exemple de : • a) 3 ml du milieu (MEM + 5 % FCS) = témoins • b) 3 ml du milieu contenant une dose élevée du composé à tester : 10 µg/ml : (M) • c) milieu contenant une faible dose du composé à tester : 0.01 µg/ml (f) respectivement aux jours 1, 2, 3 et 4 après addition du milieu expérimental dans les boîtes de Petri. Trois couvre-objets sont fixés pour chaque condition expérimentale : éthanol 95° (75 v), formol neutre à 40 % (20 v), acide acétique (5 v), pendant 10 minutes. Les cellules témoins cultivées dans le milieu expérimental sans le produit à tester sont fixées au même moment. A la fin de la fixation, les couvre-objets sont retournés et montés sur des lames histologiques à l'aide de produit commercialisé sous la marque DPX par la Société British Drug House et conservés à l'abri de la lumière et à 4° en attendant d'être colorés.
# Les lames avec les couvre-objets sont colorées par une réaction de Feulgen modifiée. Toutes les lames d'une condition expérimentale sont conditionnées par le réactif de Feulgen en même temps, pendant une heure, après hydrolyse dans un milieu HCI 6N pendant une heure à 20° C. Les préparations cellulaires sont ensuite conservées à l'abri de la lumière et à 4°C en attendant l'analyse.
# Grâce à un système d'analyse microscopique à balayage automatique, on détermine l'effet de la drogue sur la croissance cellulaire, au cours du temps, sur deux lignées cellulaires tumorales d'origine humaine : la lignée MCF-7 d'origine mammaire et la lignée HBL (mélanome malin).
# On a représenté dans le tableau C les résultats relatifs à l'action du composé 63 sur la croissance des cellules de lignée MCF-7 et dans le tableau C BIS, les résultats relatifs à l'action du composé 63 sur la croissance des cellules de lignée HBL. Ces résultats montrent le nombre de cellules survivant au traitement après 1, 2, 3 et 4 jours d'incubation et à trois doses différentes (10 µg/ml, 1 µg/ml et 0,1 µg/ml).
# Chaque chiffre correspond au nombre de cellules observées par champ de microscope.
# [1] = ip J1-9, dose optimale 0,4 mg/kg/inj.
# [2] = ip J1, dose optimale 2 mg/kg/inj.
compound,measurement,setting,value
CN(C)CCCNc1ncnc2c1C(=O)C(N1CC1)=C(N1CC1)C2=O [composé 63],survivants 30 jours,Leucémie L1210; [1],1
same,Δ P J1-J5,Leucémie L1210; [1],"-1,6 g"
same,T/C,Leucémie L1210; [1],174%
same,survivants 30 jours,Leucémie L1210; [2],1
same,Δ P J1-J5,Leucémie L1210; [2],"-2,8 g"
same,T/C,Leucémie L1210; [2],160%
same,Doses actives (T/C ≥ 125 %),Leucémie L1210; traitement ip J1,"0,25-2 mg/kg/inj."
same,Doses actives (T/C ≥ 125 %),Leucémie L1210; traitement ip J1-9,"0,03-0,8 mg/kg/inj."
same,activité sur la leucémie L1210,Leucémie L1210; summary,très efficace
same,activité sur le réticulosarcome M 5076,réticulosarcome M 5076,nette activité
same,nombre de cellules observées par champ de microscope,"cellules de lignée MCF-7; 0.1µg/ml (f), 1j",174± 38 ns
same,nombre de cellules observées par champ de microscope,"cellules de lignée MCF-7; 0.1µg/ml (f), 2j",92± 21
same,nombre de cellules observées par champ de microscope,"cellules de lignée MCF-7; 0.1µg/ml (f), 3j",38± 6
same,nombre de cellules observées par champ de microscope,"cellules de lignée MCF-7; 0.1µg/ml (f), 4j",30± 4
same,nombre de cellules observées par champ de microscope,"cellules de lignée MCF-7; 1µg/ml (M), 1j",133± 7 ns
same,nombre de cellules observées par champ de microscope,"cellules de lignée MCF-7; 1µg/ml (M), 2j",85± 8
same,nombre de cellules observées par champ de microscope,"cellules de lignée MCF-7; 1µg/ml (M), 3j",58± 7
same,nombre de cellules observées par champ de microscope,"cellules de lignée MCF-7; 1µg/ml (M), 4j",63± 8
same,nombre de cellules observées par champ de microscope,"cellules de lignée MCF-7; 10µg/ml (F), 1j",128± 11 ns
same,nombre de cellules observées par champ de microscope,"cellules de lignée MCF-7; 10µg/ml (F), 2j",93± 4
same,nombre de cellules observées par champ de microscope,"cellules de lignée MCF-7; 10µg/ml (F), 3j",87± 20
same,nombre de cellules observées par champ de microscope,"cellules de lignée MCF-7; 10µg/ml (F), 4j",88± 18
same,croissance des cellules MCF-7,"cellules de lignée MCF-7; dose-indépendante, summary of tableau C",ralentit fortement la croissance
